Values belong to the compound of their own block, whether it stands above or below them. The source made the active and inactive calls. The calls are words filed in the database; no cut-off is given here.
Legend:
hERG = hERG (Homo sapiens, UniProt Q12809); experiment: Inhibition of human ERG expressed in HEK293 cells assessed as whole cell current at 3 uM after 5 mins by automated patch-clamp assay relative to control; assay type: cell-based; settings: HEK293 cells expressing hERG
[1] = Drug level in Swiss mouse brain at 10 mg/kg, sc after 1 hr; assay type: ADME, organism-based; set-up: dose 10 mg/kg, route subcutaneous; settings: read-out: Drug uptake
[2] = Drug level in Swiss mouse brain at 10 mg/kg, sc after 1.5 hrs; assay type: ADME, organism-based; set-up: dose 10 mg/kg, route subcutaneous; settings: read-out: Drug uptake
[3] = Ratio of drug level in brain to plasma in Swiss mouse at 10 mg/kg, sc after 1 hr; assay type: ADME, organism-based; set-up: dose 10 mg/kg, route subcutaneous; settings: read-out: BPR
[4] = Drug metabolism in rat liver microsomes at 5 uM after 15 mins; assay type: ADME, Microsome; settings: read-out: Drug metabolism
[5] = biological target: T1, Metabotropic glutamate receptor 2 (Homo sapiens, UniProt Q14416); experiment: Positive allosteric modulation of human mGlu2 receptor expressed in CHO cells assessed as glutamate-induced [35S]GTPgammaS binding after 30 mins by liquid scintillation counting; assay type: functional, cell-based
Target sequence in this assay (Q14416 whole entry): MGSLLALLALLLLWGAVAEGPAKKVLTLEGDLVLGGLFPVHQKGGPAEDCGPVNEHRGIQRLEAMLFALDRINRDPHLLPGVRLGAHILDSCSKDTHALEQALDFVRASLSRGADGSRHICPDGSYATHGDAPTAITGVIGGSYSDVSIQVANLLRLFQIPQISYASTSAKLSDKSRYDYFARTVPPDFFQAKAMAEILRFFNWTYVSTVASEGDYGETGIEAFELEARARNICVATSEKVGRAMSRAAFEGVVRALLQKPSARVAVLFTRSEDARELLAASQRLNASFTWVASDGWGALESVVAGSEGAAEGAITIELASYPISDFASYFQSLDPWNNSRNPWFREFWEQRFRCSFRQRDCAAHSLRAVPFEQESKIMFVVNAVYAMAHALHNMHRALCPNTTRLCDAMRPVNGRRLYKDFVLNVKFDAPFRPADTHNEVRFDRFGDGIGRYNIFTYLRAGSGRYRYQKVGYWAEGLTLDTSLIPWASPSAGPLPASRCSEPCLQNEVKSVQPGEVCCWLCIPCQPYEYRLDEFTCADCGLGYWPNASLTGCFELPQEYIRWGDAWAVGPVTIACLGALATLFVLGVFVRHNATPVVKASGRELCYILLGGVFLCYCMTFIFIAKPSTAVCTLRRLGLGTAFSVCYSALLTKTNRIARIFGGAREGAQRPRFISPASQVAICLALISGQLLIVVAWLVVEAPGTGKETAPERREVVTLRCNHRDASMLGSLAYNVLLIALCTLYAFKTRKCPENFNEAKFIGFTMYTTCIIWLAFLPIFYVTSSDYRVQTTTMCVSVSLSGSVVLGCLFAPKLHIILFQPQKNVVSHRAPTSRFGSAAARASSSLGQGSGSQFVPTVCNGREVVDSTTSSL

[6] = biological target: T1, Metabotropic glutamate receptor 2; experiment: Positive allosteric modulation of human mGlu2 receptor expressed in CHO cells assessed as glutamate-induced [35S]GTPgammaS binding after 30 mins by liquid scintillation counting relative to glutamate; assay type: functional, cell-based
Target sequence in this assay (Q14416 19-872 limits assumed): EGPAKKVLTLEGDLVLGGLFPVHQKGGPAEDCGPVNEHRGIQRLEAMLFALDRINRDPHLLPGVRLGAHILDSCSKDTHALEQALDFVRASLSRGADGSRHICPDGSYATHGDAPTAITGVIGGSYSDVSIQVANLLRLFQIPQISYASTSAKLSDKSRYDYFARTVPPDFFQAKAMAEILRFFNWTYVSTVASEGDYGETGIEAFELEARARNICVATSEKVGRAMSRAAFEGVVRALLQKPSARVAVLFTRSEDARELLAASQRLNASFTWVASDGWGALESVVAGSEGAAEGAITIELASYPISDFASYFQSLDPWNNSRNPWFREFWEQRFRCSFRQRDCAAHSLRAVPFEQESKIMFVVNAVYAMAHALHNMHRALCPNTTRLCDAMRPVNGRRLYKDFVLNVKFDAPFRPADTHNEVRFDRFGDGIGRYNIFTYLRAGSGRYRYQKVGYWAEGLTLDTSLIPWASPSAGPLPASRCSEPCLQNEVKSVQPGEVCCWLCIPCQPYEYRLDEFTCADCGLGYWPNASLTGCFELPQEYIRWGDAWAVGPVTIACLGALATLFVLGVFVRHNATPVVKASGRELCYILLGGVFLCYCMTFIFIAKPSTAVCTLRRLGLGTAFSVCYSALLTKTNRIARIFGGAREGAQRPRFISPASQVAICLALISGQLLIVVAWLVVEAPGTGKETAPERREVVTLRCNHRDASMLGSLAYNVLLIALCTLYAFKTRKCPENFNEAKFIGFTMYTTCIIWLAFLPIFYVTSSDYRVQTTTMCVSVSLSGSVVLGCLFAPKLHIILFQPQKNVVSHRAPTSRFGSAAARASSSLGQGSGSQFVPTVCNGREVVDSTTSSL

[7] = Drug level in Swiss mouse brain at 10 mg/kg, sc after 0.5 hrs; assay type: ADME, organism-based; set-up: dose 10 mg/kg, route subcutaneous; settings: read-out: Drug uptake
[8] = Drug metabolism in human liver microsomes at 5 uM after 15 mins; assay type: ADME, Microsome; settings: read-out: Drug metabolism
Rattus norvegicus [9] = experiment: Effect on sleep-awake cycle in Sprague-Dawley rat EEG model assessed as active awake time at 10 mg/kg, sc by sleep-wake electroencephalogram assay; assay type: functional, organism-based; set-up: dose 10 mg/kg
[10] = biological target: Sodium-dependent noradrenaline transporter (Homo sapiens) (UniProt P23975); experiment: Binding affinity to norepinephrine transporter at 10 uM
Rattus norvegicus [11] = experiment: Effect on sleep-awake cycle in Sprague-Dawley rat EEG model assessed as light sleep time at 10 mg/kg, sc by sleep-wake electroencephalogram assay; assay type: functional, organism-based; set-up: dose 10 mg/kg
[12] = biological target: Metabotropic glutamate receptor 6 (Rattus norvegicus) (UniProt P35349); experiment: Antagonist activity at rat mGluR6 expressed in CHO cells by [35S]GTPgammaS binding assay; assay type: functional, cell-based
[13] = biological target: Metabotropic glutamate receptor 3 (Homo sapiens) (UniProt Q14832); experiment: Agonist activity at human mGluR3 expressed in HEK293 cells by fluorescent Ca2+ assay; assay type: functional, cell-based
[14] = biological target: Metabotropic glutamate receptor 3 (Homo sapiens) (UniProt Q14832); experiment: Antagonist activity at human mGluR3 expressed in HEK293 cells by fluorescent Ca2+ assay; assay type: functional, cell-based
[15] = biological target: Metabotropic glutamate receptor 5 (Homo sapiens) (UniProt P41594); experiment: Antagonist activity at human mGluR5 expressed in HEK293 cells by fluorescent Ca2+ assay; assay type: functional, cell-based
[16] = biological target: Metabotropic glutamate receptor 1 (Homo sapiens) (UniProt Q13255); experiment: Agonist activity at human mGluR1 expressed in HEK293 cells by fluorescent Ca2+ assay; assay type: functional, cell-based
Chain of Metabotropic glutamate receptor 1 (Homo sapiens) (Q13255 19-1194 limits assumed): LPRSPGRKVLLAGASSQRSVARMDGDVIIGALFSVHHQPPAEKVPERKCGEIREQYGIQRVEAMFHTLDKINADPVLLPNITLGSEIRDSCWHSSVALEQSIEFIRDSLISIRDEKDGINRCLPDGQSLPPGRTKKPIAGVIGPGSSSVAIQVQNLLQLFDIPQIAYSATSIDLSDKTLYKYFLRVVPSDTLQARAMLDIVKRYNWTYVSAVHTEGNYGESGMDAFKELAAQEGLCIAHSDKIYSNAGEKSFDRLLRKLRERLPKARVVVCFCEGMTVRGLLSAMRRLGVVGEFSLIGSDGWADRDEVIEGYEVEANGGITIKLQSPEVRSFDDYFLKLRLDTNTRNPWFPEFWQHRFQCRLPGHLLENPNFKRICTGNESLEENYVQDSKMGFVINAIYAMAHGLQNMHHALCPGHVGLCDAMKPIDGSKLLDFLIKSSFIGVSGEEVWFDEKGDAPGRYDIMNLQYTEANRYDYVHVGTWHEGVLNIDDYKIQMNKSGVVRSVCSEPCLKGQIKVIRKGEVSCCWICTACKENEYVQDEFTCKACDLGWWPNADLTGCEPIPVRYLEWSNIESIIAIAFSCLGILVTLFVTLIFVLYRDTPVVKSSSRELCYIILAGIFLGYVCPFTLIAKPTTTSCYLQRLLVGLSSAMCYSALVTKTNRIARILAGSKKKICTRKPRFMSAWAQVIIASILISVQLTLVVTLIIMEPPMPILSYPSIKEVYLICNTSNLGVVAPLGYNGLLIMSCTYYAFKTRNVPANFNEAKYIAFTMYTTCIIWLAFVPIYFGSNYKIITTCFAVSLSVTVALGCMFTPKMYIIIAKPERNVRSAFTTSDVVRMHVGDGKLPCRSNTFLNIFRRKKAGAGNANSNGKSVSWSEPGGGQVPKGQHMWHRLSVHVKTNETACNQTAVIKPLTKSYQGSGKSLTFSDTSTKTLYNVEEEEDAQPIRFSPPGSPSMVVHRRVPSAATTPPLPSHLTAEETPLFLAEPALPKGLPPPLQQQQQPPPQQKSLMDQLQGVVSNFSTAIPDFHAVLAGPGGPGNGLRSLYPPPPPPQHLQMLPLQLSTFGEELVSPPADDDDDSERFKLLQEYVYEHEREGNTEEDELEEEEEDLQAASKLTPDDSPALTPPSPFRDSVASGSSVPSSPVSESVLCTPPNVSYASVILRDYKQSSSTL

[17] = biological target: T1, Metabotropic glutamate receptor 2; experiment: Positive allosteric modulation of human mGlu2 receptor expressed in CHO cells assessed as fold shift in glutamate-induced [35S]GTPgammaS binding at 3 uM after 30 mins by liquid scintillation counting; assay type: functional, cell-based
Target sequence in this assay (Q14416 19-872 limits assumed): as the sequence (Q14416 19-872 limits assumed) above

Rattus norvegicus [18] = experiment: Effect on sleep-awake cycle in Sprague-Dawley rat EEG model assessed as intermediate state of sleep time at 10 mg/kg, sc by sleep-wake electroencephalogram assay; assay type: functional, organism-based; set-up: dose 10 mg/kg
[19] = biological target: Metabotropic glutamate receptor 6 (Rattus norvegicus) (UniProt P35349); experiment: Agonist activity at rat mGluR6 expressed in CHO cells by [35S]GTPgammaS binding assay; assay type: functional, cell-based
[20] = biological target: Metabotropic glutamate receptor 5 (Homo sapiens) (UniProt P41594); experiment: Agonist activity at human mGluR5 expressed in HEK293 cells by fluorescent Ca2+ assay; assay type: functional, cell-based
Rattus norvegicus [21] = experiment: Effect on sleep-awake cycle in Sprague-Dawley rat EEG model assessed as deep sleep time at 10 mg/kg, sc by sleep-wake electroencephalogram assay; assay type: functional, organism-based; set-up: dose 10 mg/kg
Rattus norvegicus [22] = experiment: Inhibition of rapid eye movement sleep in Sprague-Dawley rat EEG model at 10 mg/kg, sc up to 2 hrs by sleep-wake electroencephalogram assay; assay type: functional, organism-based; set-up: dose 10 mg/kg
[23] = biological target: Metabotropic glutamate receptor 4 (Homo sapiens) (UniProt Q14833); experiment: Agonist activity at human mGluR4 expressed in L929 cells by [35S]GTPgammaS binding assay; assay type: functional, cell-based
Chain of Metabotropic glutamate receptor 4 (Homo sapiens) (Q14833 whole entry): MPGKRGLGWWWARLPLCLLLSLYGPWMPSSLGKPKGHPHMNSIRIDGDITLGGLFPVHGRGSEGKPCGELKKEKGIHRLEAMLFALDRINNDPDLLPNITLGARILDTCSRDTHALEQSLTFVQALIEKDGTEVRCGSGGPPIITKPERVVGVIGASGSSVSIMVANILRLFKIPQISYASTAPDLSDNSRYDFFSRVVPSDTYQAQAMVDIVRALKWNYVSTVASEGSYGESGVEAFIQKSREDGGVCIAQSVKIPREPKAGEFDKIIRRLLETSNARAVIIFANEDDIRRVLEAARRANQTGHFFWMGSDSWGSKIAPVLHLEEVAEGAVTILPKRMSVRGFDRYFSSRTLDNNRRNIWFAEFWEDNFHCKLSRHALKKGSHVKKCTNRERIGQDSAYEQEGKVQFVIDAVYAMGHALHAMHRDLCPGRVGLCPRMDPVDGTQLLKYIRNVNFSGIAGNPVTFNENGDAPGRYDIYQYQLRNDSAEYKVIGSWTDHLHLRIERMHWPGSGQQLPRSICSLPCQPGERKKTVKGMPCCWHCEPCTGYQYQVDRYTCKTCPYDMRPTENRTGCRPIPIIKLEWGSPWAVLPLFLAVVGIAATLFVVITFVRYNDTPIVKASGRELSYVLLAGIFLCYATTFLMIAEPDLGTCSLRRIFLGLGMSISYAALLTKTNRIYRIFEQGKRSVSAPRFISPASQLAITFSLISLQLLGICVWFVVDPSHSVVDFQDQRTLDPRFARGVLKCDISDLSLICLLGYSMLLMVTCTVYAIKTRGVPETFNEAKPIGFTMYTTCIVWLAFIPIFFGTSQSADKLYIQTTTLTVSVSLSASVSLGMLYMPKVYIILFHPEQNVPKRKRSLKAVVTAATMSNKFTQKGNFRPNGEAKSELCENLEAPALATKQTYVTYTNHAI

Rattus norvegicus [24] = experiment: Effect on sleep-awake cycle in Sprague-Dawley rat EEG model assessed as passive wake time at 10 mg/kg, sc by sleep-wake electroencephalogram assay; assay type: functional, organism-based; set-up: dose 10 mg/kg
[25] = biological target: Metabotropic glutamate receptor 1 (Homo sapiens) (UniProt Q13255); experiment: Antagonist activity at human mGluR1 expressed in HEK293 cells by fluorescent Ca2+ assay; assay type: functional, cell-based
[26] = biological target: Metabotropic glutamate receptor 4 (Homo sapiens) (UniProt Q14833); experiment: Antagonist activity at human mGluR4 expressed in L929 cells by [35S]GTPgammaS binding assay; assay type: functional, cell-based
Rattus norvegicus [27] = experiment: Effect on sleep-awake cycle in Sprague-Dawley rat EEG model assessed as increase of REM sleep onset latency at 10 mg/kg, sc by sleep-wake electroencephalogram assay; assay type: functional, organism-based; set-up: dose 10 mg/kg

Chain of hERG (Q12809 whole entry): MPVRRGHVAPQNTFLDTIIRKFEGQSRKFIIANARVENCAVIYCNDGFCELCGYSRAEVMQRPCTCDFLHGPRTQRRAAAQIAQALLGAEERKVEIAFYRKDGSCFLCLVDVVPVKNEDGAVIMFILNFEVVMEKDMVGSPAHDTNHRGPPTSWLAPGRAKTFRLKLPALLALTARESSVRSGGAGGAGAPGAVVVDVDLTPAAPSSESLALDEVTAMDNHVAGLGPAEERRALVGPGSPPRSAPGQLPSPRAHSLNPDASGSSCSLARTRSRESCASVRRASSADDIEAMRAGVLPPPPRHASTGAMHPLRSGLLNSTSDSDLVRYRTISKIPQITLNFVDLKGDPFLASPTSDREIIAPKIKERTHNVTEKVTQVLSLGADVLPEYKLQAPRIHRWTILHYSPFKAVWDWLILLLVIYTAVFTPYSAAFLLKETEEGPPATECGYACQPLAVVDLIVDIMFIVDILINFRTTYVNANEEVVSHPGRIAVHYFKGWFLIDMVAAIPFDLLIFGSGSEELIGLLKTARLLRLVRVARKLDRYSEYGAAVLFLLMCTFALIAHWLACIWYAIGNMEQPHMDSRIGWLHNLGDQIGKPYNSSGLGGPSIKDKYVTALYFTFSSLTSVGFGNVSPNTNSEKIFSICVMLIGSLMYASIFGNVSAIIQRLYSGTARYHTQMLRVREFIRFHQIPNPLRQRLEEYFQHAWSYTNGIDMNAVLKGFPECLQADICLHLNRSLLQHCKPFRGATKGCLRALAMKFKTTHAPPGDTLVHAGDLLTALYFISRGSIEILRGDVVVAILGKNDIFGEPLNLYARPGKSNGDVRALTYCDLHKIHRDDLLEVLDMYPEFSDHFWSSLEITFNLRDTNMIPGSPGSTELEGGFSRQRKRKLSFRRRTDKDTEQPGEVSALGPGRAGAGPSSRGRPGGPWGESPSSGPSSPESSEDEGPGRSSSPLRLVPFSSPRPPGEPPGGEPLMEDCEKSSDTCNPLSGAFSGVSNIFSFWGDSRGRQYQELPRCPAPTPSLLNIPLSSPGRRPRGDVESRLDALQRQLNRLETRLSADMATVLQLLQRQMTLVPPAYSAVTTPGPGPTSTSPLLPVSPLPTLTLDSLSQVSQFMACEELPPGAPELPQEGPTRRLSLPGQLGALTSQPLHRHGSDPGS

SMILES: CC(C)CCn1ccc(-c2ccc(OCC3CC3)cc2)c(C#N)c1=O
metabolised at 0.25 h, 5 µM [4]: 16% | EC50 [5]: 290 nM | Emax [6]: 192% | metabolised at 0.25 h, 5 µM [8]: 17%

SMILES: CC(C)CCn1ccc(-c2ccc(Nc3ccncc3)cc2)c(C#N)c1=O
inhibition at 5 min, 3 µM (hERG): 91% | metabolised at 0.25 h, 5 µM [4]: 33% | EC50 [5]: 1480 nM | Emax [6]: 186% | metabolised at 0.25 h, 5 µM [8]: 25%

SMILES: CCCCn1ccc(-c2ccc(Oc3ccnc(C)c3)cc2F)c(C#N)c1=O
inhibition at 5 min, 3 µM (hERG): 52% | metabolised at 0.25 h, 5 µM [4]: 50% | Emax [6]: 232% | metabolised at 0.25 h, 5 µM [8]: 31%

SMILES: CCCCn1ccc(-c2ccc(Oc3ccnc(C)c3)c(F)c2)c(C#N)c1=O
Activity (Rattus norvegicus [9]): inactive | Activity [10]: > 50% | Activity (Rattus norvegicus [11]): inactive | Activity [12]: inactive | inhibition at 5 min, 3 µM (hERG): 21% | concentration at 1 h [1]: 1120 ng/g | concentration at 1.5 h [2]: 1020 ng/g | Kp at 1 h [3]: 0.6 | Activity [13]: inactive | metabolised at 0.25 h, 5 µM [4]: 50% | Activity [14]: inactive | Activity [15]: inactive | EC50 [5]: 316 nM | Emax [6]: 233% | Activity [16]: inactive | fold change (FC) [17]: 11 | Activity (Rattus norvegicus [18]): inactive | Activity [19]: inactive | Activity [20]: inactive | Activity (Rattus norvegicus [21]): inactive | inhibition (Rattus norvegicus [22]): Active | Activity [23]: inactive | Activity (Rattus norvegicus [24]): inactive | concentration at 0.5 h [7]: 1280 ng/g | Activity [25]: inactive | Activity [26]: inactive | Activity (Rattus norvegicus [27]): Active | metabolised at 0.25 h, 5 µM [8]: 33%

SMILES: COc1ccc(-c2ccn(CCC(C)C)c(=O)c2C#N)cc1Cl
metabolised at 0.25 h, 5 µM [4]: 99% | EC50 [5]: 363 nM | Emax [6]: 200% | metabolised at 0.25 h, 5 µM [8]: 43%

SMILES: COc1cccc(-c2ccn(CCC(C)C)c(=O)c2C#N)c1
Emax [6]: 176% | metabolised at 0.25 h, 5 µM [8]: 74%

SMILES: CCCCn1ccc(-c2ccc(Oc3cccnc3C)c(Cl)c2)c(C#N)c1=O
inhibition at 5 min, 3 µM (hERG): 56% | metabolised at 0.25 h, 5 µM [4]: 60% | EC50 [5]: 100 nM | Emax [6]: 236% | metabolised at 0.25 h, 5 µM [8]: 29%

SMILES: CNc1ccc(-c2ccn(CCC(C)C)c(=O)c2C#N)cc1
EC50 [5]: 460 nM | Emax [6]: 186%

SMILES: Cc1cc(Oc2ccc(-c3ccn(CC4CCC4)c(=O)c3C#N)cc2)ccn1
inhibition at 5 min, 3 µM (hERG): 80% | metabolised at 0.25 h, 5 µM [4]: 44% | EC50 [5]: 126 nM | Emax [6]: 233% | metabolised at 0.25 h, 5 µM [8]: 36%

More lines, main results first:

concentration at 1 h [1]: 294 ng/g | concentration at 1.5 h [2]: 100 ng/g | Kp at 1 h [3]: 0.3 | metabolised at 0.25 h, 5 µM [4]: 50% | EC50 [5]: 347 nM | Emax [6]: 228% | concentration at 0.5 h [7]: 822 ng/g | metabolised at 0.25 h, 5 µM [8]: 30%
SMILES: CCCCn1ccc(-c2ccc(Oc3cccnc3C)cc2)c(C#N)c1=O
inhibition at 5 min, 3 µM (hERG): 31%

metabolised at 0.25 h, 5 µM [4]: 51% | EC50 [5]: 166 nM | Emax [6]: 245% | metabolised at 0.25 h, 5 µM [8]: 35%
SMILES: CCCCn1ccc(-c2ccc(Oc3ccnc(C)c3)c(Cl)c2)c(C#N)c1=O

EC50 [5]: 100 nM | Emax [6]: 199%
SMILES: CC(C)CCn1ccc(-c2ccc(OC3CCCC3)c(Cl)c2)c(C#N)c1=O

EC50 [5]: 1150 nM | Emax [6]: 160%
SMILES: COc1ccc(-c2ccn(CCC(C)C)c(=O)c2C#N)cc1

EC50 [5]: 1170 nM | Emax [6]: 160% | metabolised at 0.25 h, 5 µM [8]: 35%
SMILES: COc1ccc(-c2ccn(CCC(C)C)c(=O)c2C#N)cc1F

metabolised at 0.25 h, 5 µM [4]: 41% | EC50 [5]: 372 nM | Emax [6]: 217% | metabolised at 0.25 h, 5 µM [8]: 16%
SMILES: CCCCn1ccc(-c2ccc(Oc3cc(C)nc(C)c3)c(F)c2)c(C#N)c1=O
inhibition at 5 min, 3 µM (hERG): 71%

concentration at 1 h [1]: 357 ng/g | concentration at 1.5 h [2]: 240 ng/g | Kp at 1 h [3]: 0.1 | metabolised at 0.25 h, 5 µM [4]: 27% | EC50 [5]: 64 nM | Emax [6]: 196% | concentration at 0.5 h [7]: 750 ng/g | metabolised at 0.25 h, 5 µM [8]: 25%
SMILES: Cc1ccc(Oc2ccc(-c3ccn(CC4CC4)c(=O)c3C#N)cc2Cl)c(C)n1
inhibition at 5 min, 3 µM (hERG): 89%

metabolised at 0.25 h, 5 µM [4]: 19% | EC50 [5]: 832 nM | Emax [6]: 199% | metabolised at 0.25 h, 5 µM [8]: 9%
SMILES: Cc1cc(Oc2ccc(-c3ccn(CC4CC4)c(=O)c3C#N)cc2)ccn1

— ChEMBL document CHEMBL2029212, “Discovery of 1,4-disubstituted 3-cyano-2-pyridones: a new class of positive allosteric modulators of the metabotropic glutamate 2 receptor” (J Med Chem, 2012)
